Source: publication PMC3930709, “Selective Activation of hTRPV1 by N-Geranyl Cyclopropylcarboxamide, an Amiloride-Insensitive Salt Taste Enhancer” (PLoS ONE, 2014)

Target: T1, αβγ hENaC (Homo sapiens, UniProt P37088+P51168+P51170)
T1 construct: GFP; host or cells: HEK293T
T1 sequence (P37088 1-669): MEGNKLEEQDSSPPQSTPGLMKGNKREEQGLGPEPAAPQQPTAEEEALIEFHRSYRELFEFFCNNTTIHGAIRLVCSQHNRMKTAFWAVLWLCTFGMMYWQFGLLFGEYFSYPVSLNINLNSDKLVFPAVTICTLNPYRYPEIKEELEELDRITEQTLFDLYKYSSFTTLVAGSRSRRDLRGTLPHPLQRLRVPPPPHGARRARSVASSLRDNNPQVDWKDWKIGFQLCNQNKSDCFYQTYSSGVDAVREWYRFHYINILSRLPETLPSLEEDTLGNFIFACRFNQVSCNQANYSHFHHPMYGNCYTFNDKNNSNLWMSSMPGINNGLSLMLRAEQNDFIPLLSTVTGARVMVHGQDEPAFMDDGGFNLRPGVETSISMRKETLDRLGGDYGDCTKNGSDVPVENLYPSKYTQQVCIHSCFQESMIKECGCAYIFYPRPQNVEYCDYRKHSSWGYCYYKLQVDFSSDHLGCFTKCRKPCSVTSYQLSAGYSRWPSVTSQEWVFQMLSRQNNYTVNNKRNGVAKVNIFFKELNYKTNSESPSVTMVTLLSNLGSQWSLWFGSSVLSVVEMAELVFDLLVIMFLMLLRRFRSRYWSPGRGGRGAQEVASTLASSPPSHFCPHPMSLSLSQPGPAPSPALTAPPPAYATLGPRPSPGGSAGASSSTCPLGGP
T1 sequence (P51168 1-640): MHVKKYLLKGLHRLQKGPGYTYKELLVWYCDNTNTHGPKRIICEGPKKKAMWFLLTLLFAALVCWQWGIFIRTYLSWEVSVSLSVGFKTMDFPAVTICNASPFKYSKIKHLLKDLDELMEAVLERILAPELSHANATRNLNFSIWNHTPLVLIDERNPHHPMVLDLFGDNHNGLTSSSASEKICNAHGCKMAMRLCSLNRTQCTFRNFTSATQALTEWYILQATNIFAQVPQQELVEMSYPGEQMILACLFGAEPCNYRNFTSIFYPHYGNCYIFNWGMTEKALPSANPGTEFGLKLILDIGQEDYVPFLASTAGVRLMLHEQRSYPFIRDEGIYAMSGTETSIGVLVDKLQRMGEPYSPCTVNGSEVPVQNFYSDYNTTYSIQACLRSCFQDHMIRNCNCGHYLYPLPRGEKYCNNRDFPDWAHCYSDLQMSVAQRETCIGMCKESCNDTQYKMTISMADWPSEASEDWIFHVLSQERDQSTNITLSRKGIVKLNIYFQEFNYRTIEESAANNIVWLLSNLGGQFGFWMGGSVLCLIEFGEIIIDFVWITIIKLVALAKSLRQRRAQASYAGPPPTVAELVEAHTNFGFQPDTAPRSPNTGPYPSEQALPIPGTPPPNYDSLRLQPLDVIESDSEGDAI
T1 sequence (P51170 1-649): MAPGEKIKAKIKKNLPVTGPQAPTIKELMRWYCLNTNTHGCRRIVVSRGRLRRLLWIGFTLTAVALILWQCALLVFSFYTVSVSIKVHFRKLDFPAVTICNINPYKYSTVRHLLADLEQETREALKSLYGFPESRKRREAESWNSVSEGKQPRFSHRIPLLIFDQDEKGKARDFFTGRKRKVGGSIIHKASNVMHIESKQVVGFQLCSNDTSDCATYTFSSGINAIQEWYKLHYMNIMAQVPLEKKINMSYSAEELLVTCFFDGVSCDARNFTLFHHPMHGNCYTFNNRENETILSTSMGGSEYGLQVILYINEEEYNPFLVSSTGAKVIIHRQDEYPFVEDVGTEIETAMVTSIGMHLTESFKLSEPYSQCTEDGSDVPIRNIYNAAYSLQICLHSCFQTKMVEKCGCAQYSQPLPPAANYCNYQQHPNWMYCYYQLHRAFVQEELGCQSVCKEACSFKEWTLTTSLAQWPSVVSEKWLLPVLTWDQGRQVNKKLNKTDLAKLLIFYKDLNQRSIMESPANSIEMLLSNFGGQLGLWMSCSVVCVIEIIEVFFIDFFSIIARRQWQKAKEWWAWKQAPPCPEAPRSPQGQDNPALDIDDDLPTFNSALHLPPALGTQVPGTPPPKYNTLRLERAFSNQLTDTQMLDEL
Experiment: Membrane potential assay (FMP dye) on αβγ hENaC-expressing cells
Format: cell-based
Conditions: relative to buffer alone, 0.01-10 µM
Experimental: The α, β, and γ hENaC subunits were cloned from OriGene (Rockville, MD; GenBank accession number […] for SCNN1A, NM_000336 for SCNN1B and NM_001039 for SCNN1G). α, GFP-tagged β, and γ hENaC were cloned into a CMV promoter-based vector and expressed constitutively. The HEK293T cells were seeded onto a 35 mm dish and transfected with α, β, and γ hENaC expression plasmid using Lipofectamine 2000 (Invitrogen). Then, transfected cells were seeded onto 96-well black-wall plate for 18–26 h prior to their use in an experiment.
hENaC-expressing cells were characterized using FLIPER Membrane Potential (FMP) Assay Kit (Molecular Devices Corporation, Sunnyvale, CA, USA). In this assay, changes in the membrane potential were quantified via fluorescence change caused by FMP dye. The hENaC-expressing cells were washed with assay buffer (containing: 130 mM NaCl, 10 mM glucose, 5 mM KCl, 2 mM CaCl2, 1.2 mM MgCl2, and 10 mM HEPES, pH adjusted to 7.4 with NaOH) and subsequently, FMP blue-dye in assay buffer was loaded into the cells at room temperature for 30 min. After dye treatment, S3969 (0.03−10 µM), an ENaC agonist, S3969+Bz (ENaC antagonist, 0.01 µM), or NGCC (0.01−10 µM) was treated to hENaC-expressing cells. The plate was assayed in a FlexStation III plate reader (Molecular devices Corporation) by excitation at 530 nm and measuring the emission at 560 nm.

SMILES: CC(C)=CCC/C(C)=C/CNC(=O)C1CC1 [NGCC, N-geranylcyclopropylcarboxamide]
- change in membrane potential in αβγ hENaC-expressing cells: no significant changes in membrane potential
